# How the values were obtained:
# [1] = Stability and hygroscopicity of the bulk monosodium salt carbapenem on storage; format: physicochemical
# Description: and a process for the preparation thereof.
# During the manufacture of bulk compound products such as beta-lactam and carbapenem antibiotics, the pharmaceutical compound is prepared by chemical synthesis from raw materials in large quantities. As with many carbapenem compounds, the compound in accordance with formula I is prepared in large batches as a monosodium salt. The compound is a weakly crystalline solid, hygroscopic at ambient conditions, and is unstable at room and refrigerated temperatures. Therefore, the bulk compound must be stored at a temperature of about −20° C. to prevent degradation into dimer and open ring by-products.
# [2] = cited from earlier work
smiles,measurement,setting,value
CC(O)C1C(=O)N2C(C(=O)[O-])=C(SC3CNC(C(=O)Nc4cccc(C(=O)O)c4)C3)C(C)C12.[Na+] (stereo not shown) [formula I],hygroscopicity,"[1]; ambient conditions, weakly crystalline solid",hygroscopic
same,stability at room and refrigerated temperatures,[1]; bulk monosodium salt,unstable
same,stability at ambient conditions,"[2]; 20° C. and 1 atmosphere, monosodium salt",relatively unstable
same,stability at temperatures above about −20° C.,[2]; undergoes dimerization and hydrolysis to dimers and open ring by-products,remains unstable
